Laboratory results taken from patent US20100041972A1, “APPARATUS AND METHODS” (priority 2006, published 2010).

Legend:
[1] = system: rat dorsal raphe; assay: MEA recording of neuronal firing in rat dorsal raphe slice; type: cell-based; settings: channels 34, 43, 48 and 57; heterogeneity noted
Description: Wistar rats or mice obtained from Charles River were sacrificed by cervical dislocation. The brain was rapidly removed and a block of tissue containing the relevant area was prepared. Brain tissue was glued onto a glass slide using cyanoacryalate glue (Permabond C2). The block was supported by a similar sized block of agar (3% in NaCl, 126 mM) glued immediately behind the brain block. Coronal slices (300 μm thick) of the relevant brain slice were cut from the brain using a Vibratome™ (Oxford Instruments, supplied by Intracel, Unit 4, Station Road, Shepreth, Royston. Herts. UK). The slices were transferred to artificial cerebrospinal fluid (ACSF) which contained (in mM): NaCl 126, KCl 5, NaH2PO4 1.24, CaCl2 2.4, MgCl2 1.3, NaHCO3 26, glucose 10, at pH 7.4, continuously bubbled with ‘carbogen’ (95% O2/5% CO2) and maintained at room temperature. […]
Extracelular action potentials were recorded from either isolated neurones, or several neurones per electrode. […]
All spike waveforms or LFP ‘events’ that crossed a pre-set voltage threshold (−12 and −8 pV respectively) were stored as both ‘time-stamps’ (i.e. ‘time of occurrence’), and as ‘spike cut-outs’ (i.e. digitised waveform prior to, and after threshold crossing). All experimental data were recorded directly on to hard disk, and backed up onto various means of data archiving. […]

[2] = system: olfactory bulb mitral cells; assay: Acute in vivo MEA recording of odour response in olfactory bulb; parameters: species or system male Wistar rats; settings: odour at 5.42×10^−6 M in breathing air, urethane anaesthesia
Description: Multi-electrode array recordings from olfactory bulb mitral cells (5×5 array). 1. Spontaneous population burst. 2. Control, no odour. 3. Arnyl acetate. 4. N-butanol. 5. Cineole. 6. Pinene. 7. DL-Camphor. 8. Linalool (max response). 9. Linalool “off response”. […] The results are shown as peak odour response neuronal activity maps in olfactory bulb. These records were from male Wistar rats (400 g) anaesthetized with urethane and secured in a stereotaxic unit). The NeuroZonds MEAs of the invention penetrated the left olfactory bulbs horizontally (after left enucleation). The odours were presented in the animals breathing air under the control of the normal breathing cycle (detected by thermistor probe in mask), diluted from stock in pure nitrogen. The concentrations of odourants were determined according to the relative saturation vapour pressures of the odourants at particular temperatures via a custom-built ‘olfactometer’.

Row | Compound | neuronal firing, effect of XE-991 after retigabine [1] | spatiotemporal dynamics of odour response [2]
1 | O=C1c2ccccc2C(Cc2ccncc2)(Cc2ccncc2)c2ccccc21 [XE-991] | recovery of retigabine inhibition | –
2 | pinene | – | marked “off response”
